The source of these data is US11419335B2, “N-arylated analogues and uses thereof” (University of Florida Research Foundation, Incorporated, priority 2016, dated 2022).

SMILES strings stand for the structures. Like-named read-outs stand apart in the source and are kept apart here.

Experiment [1] relates to methicillin-resistant Staphylococcus aureus MRSA-2 (clinical isolate). Nature of the experiment: MIC broth microdilution, MRSA-2. Format: cell-based. Particulars: for MIC: read-out: MIC MRSA-2. Here is the method: (§1) The minimum inhibitory concentration (MIC) for each tested compound was determined by the broth microdilution method as recommended by the Clinical and Laboratory Standards Institute (CLSI). In a 96-well plate, eleven two-fold serial dilutions of each compound were made in a final volume of 100 μL Luria Broth. Each well was inoculated with ˜10^5 bacterial cells at the initial time of incubation, prepared from a fresh log phase culture (OD600 of 0.5 to 1.0 depending on bacterial strain). The MIC was defined as the lowest concentration of compound that prevented bacterial growth after incubating 16 to 18 hours at 37° C. (MIC values were supported by spectrophotometric readings at OD600). DMSO served as our vehicle and negative control in each microdilution MIC assay. DMSO was serially diluted with a top concentration of 1% v/v.
as §1, with “for each compound was” for “for each tested compound was”, “Standards Institute (CLSI).^6 In a” for “Standards Institute (CLSI). In a”, “concentration of test compound that” for “concentration of compound that”, “37° C. The concentration range tested for each compound during this study was 0.10 to 100 μM. DMSO served” for “37° C. (MIC values were supported by spectrophotometric readings at OD600). DMSO served”, “1% v/v. All MIC values were obtained from a minimum of three independent experiments.” for “1% v/v.”

The next experiment has as its system MRSA BAA-1707. Nature of the experiment: MIC broth microdilution, MRSA BAA-1707. Format: cell-based, Staphylococcus aureus. Particulars: for MIC: read-out: MIC MRSA BAA-1707. Here is the method: as §1, with “The MIC was defined as the lowest concentration of compound that prevented bacterial growth after incubating 16 to 18 hours at 37° C.” left out
(§2) Each well was inoculated with ˜10^5 bacterial cells at the initial time of incubation, prepared from a fresh log phase culture (OD600 of 0.5 to 1.0 depending on bacterial strain). […] The concentration range tested for each compound during this study was 0.10 to 100 μM. DMSO served as our vehicle and negative control in each microdilution MIC assay. DMSO was serially diluted with a top concentration of 1% v/v. All MIC values were obtained from a minimum of three independent experiments.

Experiment [2] has as its system methicillin-resistant Staphylococcus epidermidis (MRSE strain ATCC 35984). Kind of experiment: MIC broth microdilution, MRSE 35984. The class given is cell-based. Particulars: Table 4. How it is done:
as §1
as §1, with “for each compound was” for “for each tested compound was”, “Standards Institute (CLSI).^6 In a” for “Standards Institute (CLSI). In a”, “concentration of test compound that” for “concentration of compound that”, “37° C. The concentration range tested for each compound during this study was 0.10 to 100 μM. DMSO served” for “37° C. (MIC values were supported by spectrophotometric readings at OD600). DMSO served”, “1% v/v. All MIC values were obtained from a minimum of three independent experiments.” for “1% v/v.”

Experiment [3] deals with vancomycin-resistant Enterococcus faecium (VRE strain ATCC 700221). Kind of experiment: MIC broth microdilution, VRE 700221. Particulars: Table 4. Format: cell-based. How it is done:
as §1
as §1, with “for each compound was” for “for each tested compound was”, “Standards Institute (CLSI).^6 In a” for “Standards Institute (CLSI). In a”, “concentration of test compound that” for “concentration of compound that”, “37° C. The concentration range tested for each compound during this study was 0.10 to 100 μM. DMSO served” for “37° C. (MIC values were supported by spectrophotometric readings at OD600). DMSO served”, “1% v/v. All MIC values were obtained from a minimum of three independent experiments.” for “1% v/v.”

Experiment [4] relates to Acinetobacter baumannii (ATCC 1794). Kind of experiment: MIC broth microdilution, A. baumannii 1794. The class given is cell-based. Particulars: Table 4. Here is the method: as §1
as §1, with “for each compound was” for “for each tested compound was”, “Standards Institute (CLSI).^6 In a” for “Standards Institute (CLSI). In a”, “concentration of test compound that” for “concentration of compound that”, “37° C. The concentration range tested for each compound during this study was 0.10 to 100 μM. DMSO served” for “37° C. (MIC values were supported by spectrophotometric readings at OD600). DMSO served”, “1% v/v. All MIC values were obtained from a minimum of three independent experiments.” for “1% v/v.”

The test system of experiment [5] is Pseudomonas aeruginosa (PAO1). Nature of the experiment: MIC broth microdilution, PAO1. Format: cell-based. Particulars: Table 4. Here is the method: as §1
as §1, with “for each compound was” for “for each tested compound was”, “Standards Institute (CLSI).^6 In a” for “Standards Institute (CLSI). In a”, “concentration of test compound that” for “concentration of compound that”, “37° C. The concentration range tested for each compound during this study was 0.10 to 100 μM. DMSO served” for “37° C. (MIC values were supported by spectrophotometric readings at OD600). DMSO served”, “1% v/v. All MIC values were obtained from a minimum of three independent experiments.” for “1% v/v.”

The test system of experiment [6] is Klebsiella pneumoniae (ATCC 13883). Kind of experiment: MIC broth microdilution, K. pneumoniae 13883. The class given is cell-based. Particulars: Table 4. Here is the method: as §1
as §1, with “for each compound was” for “for each tested compound was”, “Standards Institute (CLSI).^6 In a” for “Standards Institute (CLSI). In a”, “concentration of test compound that” for “concentration of compound that”, “37° C. The concentration range tested for each compound during this study was 0.10 to 100 μM. DMSO served” for “37° C. (MIC values were supported by spectrophotometric readings at OD600). DMSO served”, “1% v/v. All MIC values were obtained from a minimum of three independent experiments.” for “1% v/v.”

Experiment [7] relates to Escherichia coli clinical isolate (UAEC-1). Kind of experiment: MIC broth microdilution, UAEC-1. Conditions: Table 4. The class given is cell-based. How it is done: as §1
as §1, with “for each compound was” for “for each tested compound was”, “Standards Institute (CLSI).^6 In a” for “Standards Institute (CLSI). In a”, “concentration of test compound that” for “concentration of compound that”, “37° C. The concentration range tested for each compound during this study was 0.10 to 100 μM. DMSO served” for “37° C. (MIC values were supported by spectrophotometric readings at OD600). DMSO served”, “1% v/v. All MIC values were obtained from a minimum of three independent experiments.” for “1% v/v.”

The subject of experiment [8] is methicillin-sensitive Staphylococcus aureus ATCC 29213. Kind of experiment: MIC broth microdilution, S. aureus 29213. The class given is cell-based. How it is done: as §1, with “The MIC was defined as the lowest concentration of compound that prevented bacterial growth after incubating 16 to 18 hours at 37° C.” left out
as §2

Consider `CCCCCCCCCCCCCCCCn1cc[n+](-c2ccc(Cl)cc2)c1C.[Br-]` [Compound 6], for which the MIC (in experiment [1] (Table 1B); in experiment [1] (Table 3); in the experiment on MRSA BAA-1707 (Table 1B); with MRSA BAA-1707 (Table 3); in experiment [8] (Table 1B); in experiment [8] (Table 3)) was 3.13 µM throughout. Also, the “MIC MRSA-2” value in [1] (Table 4) came out at 3.13 µM. In the experiment on MRSA BAA-1707 (Table 4), the “MIC MRSA 1707” value was 3.13 µM. The “MIC MRSE 35984” value in experiment [2] is recorded as 1.17a micromolar. Besides, in [3], the “MIC VRE 700221” value came out at 1.56 µM. The “MIC A. bau. 1794” value in experiment [4] amounted to 12.5 µM. Moreover, the “MIC PAO1” value in [5] is over 100 µM. Further, the “MIC K. pneu. 13883” value in experiment [6] is 6.25 µM. In [7], the “MIC UAEC-1” value was 6.25 µM.
